In patent US12012404B2, “Pyrimidoheterocyclic compounds and application thereof” (D3 BIO (WUXI) CO., LTD., priority 2020, dated 2024):

Legend:
Assay type in all cases: in vitro ADME
[1] = In vitro stability in liver microsomes, CD-1 mice; conditions: CD-1 mice liver microsomes, 0.5 mg/mL
Method: (§1) Purpose of the assay: Metabolic stabilities of the assay compounds in liver microsomes of CD-1 mice, SD rats, beagle dogs, cynomolgus monkeys, and human were assayed, respectively.
(§2) Procedure of the assay: Two 96-well incubation plates were prepared and named T60 incubation plate and NCF60 incubation plate, respectively. 445 μL of microsomal working solutions (liver microsomal protein concentration of 0.56 mg/mL) were added to the T60 incubation plate and the NCF60 incubation plate, respectively, and then the above incubation plates were pre-incubated in a 37° C. water bath for about 10 minutes.
(§3) After the pre-incubation, 5 μL of working solutions of the assay sample or the control compound were added to the T60 incubation plate and the NCF60 incubation plate, respectively, and the mixture was mixed well. 50 μL of potassium phosphate buffer was added to each well of the NCF60 incubation plate to initiate the reaction. 180 μL of stop solution (200 ng/mL tolbutamide and 200 ng/mL labetalol in acetonitrile) and 6 uL of NADPH regeneration system working solution were added to the T0 stop plate, and 54 μL of sample was transferred from T60 incubation plate to T0 stop plate (generation of TO sample). The reaction was initiated by adding 44 μL of NADPH regeneration system working solution to each well of the T60 incubation plate. Only 54 μL of microsome working solution, 6 uL of NADPH regeneration system working solution and 180 μL of stop solution were added to the Blank plate. Therefore, in samples of the assay compound or the control compound, the final reaction concentration of compound, testosterone, diclofenac and propafenone was 1 μM, the concentration of liver microsomes was 0.5 mg/mL, and the final reaction concentrations of DMSO and acetonitrile in the reaction system were 0.01% (v/v) and 0.99% (v/v), respectively.
(§4) After an appropriate time (e.g., 5, 15, 30, 45 and 60 minutes) of incubation, 180 μL of stop solutions (200 ng/mL tolbutamide and 200 ng/mL labetalol in acetonitrile) were added to the sample wells of each stop plate, respectively. 60 μL of sample was removed from the T60 incubation plate to stop the reaction. All sample plates were shaken well and then centrifuged at 3220×g for 20 minutes. Then 80 μL of supernatant was taken out from each well, and diluted in 240 μL of pure water for liquid chromatography-tandem mass spectrometry analysis. All samples were injected and analyzed by liquid chromatography-tandem mass spectrometry.

[2] = In vitro stability in liver microsomes, cynomolgus monkeys; conditions: 0.5 mg/mL
Method: as §1, §2, §3, §4

[3] = Stability assay in plasma, human; conditions: 2 μM, 37° C.
Method: Purpose of the assay: Stabilities of the assay compounds in plasma of CD-1 mice and human were assayed, respectively.
Procedure of the assay: Cryopreserved plasma was thawed for 10-20 min. After the plasma was completely thawed, it was placed in a centrifuge and centrifuged at 3220×g for 5 min to remove any suspended matter and sediment in the plasma. 96-well incubation plates were prepared and named TO, T10, T30, T60, T120, respectively. 98 μL of blank plasmas of mouse, rat, canine, monkey and human were added to the corresponding incubation plates, then 2 μL of working solutions of the compound or the control compound were added to the corresponding plates in duplicate. All samples were incubated in a 37° C. water bath. The final incubation concentrations of the compound and the control compounds bisacodyl, enalapril maleate, procaine and probanthine were 2 μM, and the final organic phase content was 2.0%. At the end of incubation for each time point, the corresponding incubation plate was removed and 400 μL of a solution of 200 ng/mL of tolbutamide and labetalol in acetonitrile was added to each corresponding sample well to precipitate the protein. All sample plates were sealed and shaken well, and then centrifuged at 3220×g for 20 minutes. 50 μL of supernatant was taken out and diluted in 100 μL of ultrapure water. All samples were mixed well and then analyzed by LC/MS/MS.

[4] = Stability assay in whole blood, cynomolgus monkeys; conditions: 5 μM, 37° C.
Method: Purpose of the assay: Stabilities of the assay compounds in whole blood of CD-1 mice, SD rats, Beagle dogs and cynomolgus monkeys were assayed, respectively.
Procedure of the assay: On the day of the assay or the day before the assay, fresh whole blood from CD-1 mice, SD rats, beagle dogs, and cynomolgus monkeys was collected using anticoagulant EDTA-K2. Prior to the start of the assay, the whole blood was mixed with PBS in 1:1 (v:v) and the mixture was preheated in a 37° C. water bath for 10-20 minutes. […] […] All samples were incubated in a 37° C. water bath. The final incubation concentration of the compound was 5 μM and the final incubation concentration of the control compound was 2 μM. At the end of incubation for each time point, the corresponding incubation plate was removed and 100 μL of ultrapure water was immediately added to the corresponding sample wells, and mixed well. 800 μL of a solution of 200 ng/mL tolbutamide and labetalol in acetonitrile was added to precipitate the protein. The sample plates were sealed and shaken well, and then centrifuged at 3220×g for 20 min. 150 μL of supernatant was taken out and analyzed by LC/MS/MS.

[5] = tested on: plasma protein of human; assay: Protein binding rate by equilibrium dialysis, human plasma; conditions: 2 μM, dialysis 4 hours
Method: Purpose of the assay: Protein binding rate of the assay compounds in plasma of CD-1 mice, SD rats, beagle dogs, cynomolgus monkeys and human was determined by equilibrium dialysis.
Procedure of the assay: Plasma samples with a compound concentration of 2 μM were prepared using plasma of the above five species, placed in a 96-well equilibrium dialysis device, and dialyzed with phosphate buffer solution at 37±1° C. for 4 hours. Warfarin was used as the control compound in this assay. The concentrations of the assay compounds in plasma and dialysis buffer were determined by LC-MS/MS method.

Compound | CLint(liver) ([1]; 1 μM) [mL/min/kg] | CLint(mic) ([1]; 1 μM) [µL/min/mg] | T1/2 ([1]; 1 μM) [min] | CLint(liver) ([2]; 1 μM) [mL/min/kg] | CLint(mic) ([2]; 1 μM) [µL/min/mg] | T1/2 ([2]; 1 μM) [min] | Detection of assay compound content within 120 min [3] [%] | Detection of assay compound content within 120 min [4] [%] | Protein unbound rate [5] | CLint scaled at 1 μM ([1]; mouse) [mL/min/kg] | half-life at 1 μM ([1]; mouse) [min] | CLint scaled at 1 μM ([2]; cynomolgus monkey) [mL/min/kg] | half-life at 1 μM ([2]; cynomolgus monkey) [min]
C=C(F)C(=O)N1CCN(c2nc(OCC3CCCN3C)nc3c2COC(c2c(F)c(N)cc(C)c2C(F)(F)F)C3)CC1CC#N.Cl (single isomer, unassigned) [Compound 8B hydrochloride] | 436.1 | 110 | 12.6 | 80.3 | 59.5 | 23.3 | 114 | 58 | 10.6 |  |  |  | 
C=C(F)C(=O)N1CCN(c2nc(OC[C@@]34CCCN3C[C@H](F)C4)nc3c2COC(c2c(F)c(N)cc(C)c2C(F)(F)F)C3)C[C@@H]1CC#N (stereo partly drawn) [Compound 17] |  | 285 |  |  | 225 |  | 93 | 77 | 4.8 | 1130 | 4.9 | 303 | 6.2
